Results published in patent publication US6503928B2, “Arylpiperidine and aryl-1,2,5,6-tetrahydropyridine amide derivatives” (Wyeth, priority 1998, dated 2003).
Structures can show the parent of a compound that is named as a salt.

Assays:
human 5HT1A receptor [1] = target: T1, human 5HT1A receptor (Homo sapiens, UniProt P08908); experiment: 5-HT1A receptor binding assay ([3H] 8-OH-DPAT displacement); conditions: displacement of [3H] 8-OH-DPAT, CHO cells stably transfected with human 5HT1A receptor
T1 construct: expressed in transfected cells; host or cells: CHO cells (stably transfected)
T1 sequence (P08908 1-422): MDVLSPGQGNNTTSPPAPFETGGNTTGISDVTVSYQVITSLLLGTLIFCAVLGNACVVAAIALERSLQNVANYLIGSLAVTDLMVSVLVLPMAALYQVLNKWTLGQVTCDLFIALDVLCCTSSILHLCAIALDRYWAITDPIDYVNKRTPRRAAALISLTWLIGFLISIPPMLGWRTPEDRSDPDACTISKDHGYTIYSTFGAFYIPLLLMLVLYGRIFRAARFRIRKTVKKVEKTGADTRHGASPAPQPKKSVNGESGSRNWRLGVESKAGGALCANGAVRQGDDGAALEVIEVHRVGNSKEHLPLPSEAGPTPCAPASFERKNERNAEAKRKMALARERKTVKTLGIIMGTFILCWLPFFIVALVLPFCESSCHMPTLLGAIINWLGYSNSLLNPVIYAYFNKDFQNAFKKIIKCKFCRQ
Description: 5-HT1A Receptor Binding Assay
High affinity for the serotonin 5-HT1A receptor was established by testing the compound's ability to displace [^3H] 8-OH-DPAT bindino in CHO cells stably transfected with human 5HT1A receptor. Stably transfected CHO cells are grown in DMEM containing 10% heat inactivated FBS and non-essential amino acids. Cells are scraped off the plate, transferred to centrifuge tubes, and washed twice by centrifugation (2000 rpm for 10 min., 4° C.) in buffer (50 mM Tris pH 7.5). The resulting pellets are aliquoted and placed at −80° C. On the day of assay, the cells are thawed on ice and resuspended in buffer. The binding assay is performed in a 96 well microtiter plate in a total volume of 250 μL. Non-specific binding is determined in the presence of […] 5-HT, final ligand concentration is 1.5 nM. Following a 30 minute incubation at room temperature, the reaction is terminated by the addition of ice cold buffer and rapid filtration through a GF/B filter presoaked for 30 minutes in 0.5% PEI. Compounds are initially tested in a single point assay to determine percent inhibition at […], and Ki values are determined for the active compounds.

human 5HT1A receptor [2] = target: T1, human 5HT1A receptor; experiment: 5-HT1A receptor intrinsic activity assay (cAMP); type: cell-based; conditions: for EC50: agonist mode: reversal of forskolin-stimulated cAMP in CHO cells transfected with human 5-HT1A; for IC50: antagonist mode: reversal of agonist-induced activity, antagonist preincubated 20 minutes before agonist and forskolin
Description: 5-HT1A Receptor Intrinsic Activity Assay
The intrinsic activity of compounds of the present invention was established by testing the claimed compounds ability to reverse the stimulation of cyclic adenosinemonophosphate (cAMP) in CHO cells stably transfected with the human 5-HT1A receptor.
Stably transfected CHO cells were grown in DMEM containing 10% heat inactivated FBS and non-essential amino acids. The cells are plated at a density of […] cells per well in a 24 well plate and incubated for 2 days in a CO2 incubator. On the second day, the media is replaced with 0.5 mL treatment buffer (DMEM+25 mM HEPES, 5 mM theophylline, 10 μM pargyline) and incubated for 10 minutes at 37° C. Wells are treated with forskolin (1 μM final concentration) followed immediately by the test compound (0.1 and 1 μM for initial screen) and incubated for an additional 10 minutes at 37° C. The reaction is terminated by removal of the media and addition of 0.5 mL ice cold assay buffer (supplied in the RIA kit). Plates are stored at −20° C. prior to assessment of cAMP formation by RIA. EC50 values are determined for the active test compounds. Compounds shown to have no agonist activities (Emax=0%) are further analyzed for their ability to reverse agonist-induced activity. In separate experiments, 6 concentrations of antagonist are preincubated for 20 minutes prior to the addition of agonist and forskolin. Cells are harvested as described above. The cAMP kit is supplied by Amersham and the RIA is performed as per kit instructions, and calculations of IC50 performed by GraphPad Prism.

[3] = agonist mode: reversal of forskolin-stimulated cAMP, Emax=0% means no agonist activity

Row | Structure (SMILES) | melting point [°C] | Ki (human 5HT1A receptor [1]) [nM] | other results
1 | COc1ccc(F)cc1C1CCN(C[C@@H](Cc2ccccc2)N(C)C(=O)C2(C)CCCCC2)CC1 (as salt: fumarate) [Example 1, 1-Methyl-cyclohexanecarboxylic Acid {(1R)-1-Benzyl-2-[4-(5-fluoro-2-methoxy-phenyl)-piperidine-1-yl]-ethyl}-methyl-amide] | 160 to 165 |  | 
2 | COc1ccccc1C1=CCN(C[C@@H](Cc2ccccc2)NC(=O)C2CCCCC2)CC1 (as salt: fumarate) [Example 3, (R)-Cyclohexanecarboxylic Acid {1-Benzyl-2-[4-(2-methoxy-phenyl)-3,6-dihydro-2H-pyridin-1-yl]-ethyl}-amide] | 146 to 148 |  | 
3 | COc1ccccc1C1=CCN(C[C@@H](Cc2ccccc2)NC(=O)C2(C)CCCCC2)CC1 (as salt: fumarate) [Example 4, (R)-1-Methyl-cyclohexanecarboxylic Acid {1-Benzyl-2-[4-(2-methoxy-phenyl)-3,6-dihydro-2H-pyridin-1-yl]-ethyl}-amide] | 102 to 104 |  | 
4 | COc1ccccc1C1CCN(C[C@@H](Cc2ccccc2)NC(=O)C2(C)CCCCC2)CC1 (as salt: fumarate) [Example 5, (R)-1-Methyl-cyclohexanecarboxylic Acid {1-Benzyl-2-[4-(2-methoxy-phenyl)-piperidin-1-yl]-ethyl}-amide] | 77 to 79 |  | 
5 | COc1ccccc1C1CCN(C[C@@H](Cc2ccccc2)NC(=O)C2CCCCC2)CC1 (as salt: fumarate) [Example 6, (R)-Cyclohexanecarboxylic Acid {1-Benzyl-2-[4-(2-methoxy-phenyl)-piperidin-1-yl]-ethyl}-amide] | 103 to 105 |  | 
6 | COc1ccccc1C1CCN(C[C@@H](Cc2cccnc2)NC(=O)C2(C)CCCCC2)CC1 (as salt: fumarate) [Example 7, 1-Methyl-cyclohexanecarboxylic Acid {(1R)-2-[4-(2-Methoxy-phenyl)-piperidin-1-yl]-1-pyridin-3-ylmethyl-ethyl}-amide] | 99 to 101 |  | 
7 | COc1ccccc1C1CCN(C[C@@H](Cc2ccncc2)NC(=O)C2(C)CCCCC2)CC1 (as salt: fumarate) [Example 8, 1-Methyl-cyclohexanecarboxylic Acid {(1R)-2-[4-(2-Methoxy-phenyl)-piperidin-1-yl]-1-pyridin-4-ylmethyl-ethyl}-amide] | 108 to 110 |  | 
8 | COc1ccccc1C1CCN(C[C@@H](Cc2cccnc2)N(C)C(=O)C2CCCCC2)CC1 (as salt: hydrochloride) [Example 9, Cyclohexanecarboxylic Acids {(1R)-2-[4-(2-Methoxy-phenyl)-piperidin-1-yl]-1-pyridin-3-ylmethyl-ethyl}-methyl-amide] | 148 to 150 |  | 
9 | COc1ccccc1C1CCN(C[C@@H](Cc2ccncc2)N(C)C(=O)C2CCCCC2)CC1 (as salt: hydrochloride) [Example 10, Cyclohexanecarboxylic acid {(1R)-2-[4-(2-Methoxy-phenyl)-piperidin-1-yl]-1-pyridin-4-ylmethyl-ethyl}-methyl-amide] | 158 to 160 |  | 
10 | COc1ccc(F)cc1C1=CCN(C[C@@H](Cc2ccccc2)N(C)C(=O)C2(C)CCCCC2)CC1 [Example 2, 1-Methyl-cyclohexanecarboxylic Acid {(1R)-1-Benzyl-2-[4-(5-fluoro-2-methoxy-phenyl)-1,2,5,6-tetrahydro-4H-pyridin-1-yl]-ethyl}-methyl-amide] |  | 4.9 | cAMP Emax (human 5HT1A receptor [2]; [3]): 0%
11 | COc1ccccc1C1=CCN(C[C@@H](Cc2ccccc2)NC(=O)C2CCCCC2)CC1 [Example 3, (R)-Cyclohexanecarboxylic Acid {1-Benzyl-2-[4-(2-methoxy-phenyl)-3,6-dihydro-2H-pyridin-1-yl]-ethyl}-amide] |  | 0.22 | EC50 (human 5HT1A receptor [2]): 3.4 nM
12 | COc1ccccc1C1=CCN(C[C@@H](Cc2ccccc2)NC(=O)C2(C)CCCCC2)CC1 [Example 4, (R)-1-Methyl-cyclohexanecarboxylic Acid {1-Benzyl-2-[4-(2-methoxy-phenyl)-3,6-dihydro-2H-pyridin-1-yl]-ethyl}-amide] |  | 0.25 | EC50 (human 5HT1A receptor [2]): 4.3 nM
13 | COc1ccccc1C1CCN(C[C@@H](Cc2cccnc2)NC(=O)C2(C)CCCCC2)CC1 [Example 7, 1-Methyl-cyclohexanecarboxylic Acid {(1R)-2-[4-(2-Methoxy-phenyl)-piperidin-1-yl]-1-pyridin-3-ylmethyl-ethyl}-amide] |  | 0.74 | Emax (human 5HT1A receptor [2]; [3]): 0%; IC50 (human 5HT1A receptor [2]): 38 nM
14 | COc1ccccc1C1CCN(C[C@@H](Cc2ccncc2)NC(=O)C2(C)CCCCC2)CC1 [Example 8, 1-Methyl-cyclohexanecarboxylic Acid {(1R)-2-[4-(2-Methoxy-phenyl)-piperidin-1-yl]-1-pyridin-4-ylmethyl-ethyl}-amide] |  | 0.63 | Emax (human 5HT1A receptor [2]; [3]): 0%
15 | COc1ccccc1C1CCN(C[C@@H](Cc2cccnc2)N(C)C(=O)C2CCCCC2)CC1 [Example 9, Cyclohexanecarboxylic Acids {(1R)-2-[4-(2-Methoxy-phenyl)-piperidin-1-yl]-1-pyridin-3-ylmethyl-ethyl}-methyl-amide] |  | 1.77 | Emax (human 5HT1A receptor [2]; [3]): 0%
16 | COc1ccccc1C1CCN(C[C@@H](Cc2ccncc2)N(C)C(=O)C2CCCCC2)CC1 [Example 10, Cyclohexanecarboxylic acid {(1R)-2-[4-(2-Methoxy-phenyl)-piperidin-1-yl]-1-pyridin-4-ylmethyl-ethyl}-methyl-amide] |  | 1.18 | Emax (human 5HT1A receptor [2]; [3]): 0%; IC50 (human 5HT1A receptor [2]): 19.3 nM
